Assay results as given in US9738655B2, “Tetrahydroisoquinolines containing substituted azoles as factor XIa inhibitors” (BRISTOL-MYERS SQUIBB COMPANY, priority 2013, dated 2017).
Where a name gives a salt, the structure may show the parent alone. Read-outs that look alike come from different tables or passages of the source.

Legend:
[1] = molecular target: purified human plasma kallikrein (Homo sapiens (Human), UniProt P03952); assay: Plasma kallikrein enzyme inhibition assay (chromogenic substrate S-2302); format: biochemical
purified human plasma kallikrein, sequence (P03952 391-638): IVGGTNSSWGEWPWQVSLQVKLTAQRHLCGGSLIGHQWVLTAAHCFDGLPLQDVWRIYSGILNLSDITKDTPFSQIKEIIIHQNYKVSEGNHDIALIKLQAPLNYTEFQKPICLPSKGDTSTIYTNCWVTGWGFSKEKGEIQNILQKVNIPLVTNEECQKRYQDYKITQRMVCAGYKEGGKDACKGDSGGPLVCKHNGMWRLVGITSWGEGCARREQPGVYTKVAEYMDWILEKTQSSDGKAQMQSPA
purified human plasma kallikrein, sequence (P03952 20-390 partner): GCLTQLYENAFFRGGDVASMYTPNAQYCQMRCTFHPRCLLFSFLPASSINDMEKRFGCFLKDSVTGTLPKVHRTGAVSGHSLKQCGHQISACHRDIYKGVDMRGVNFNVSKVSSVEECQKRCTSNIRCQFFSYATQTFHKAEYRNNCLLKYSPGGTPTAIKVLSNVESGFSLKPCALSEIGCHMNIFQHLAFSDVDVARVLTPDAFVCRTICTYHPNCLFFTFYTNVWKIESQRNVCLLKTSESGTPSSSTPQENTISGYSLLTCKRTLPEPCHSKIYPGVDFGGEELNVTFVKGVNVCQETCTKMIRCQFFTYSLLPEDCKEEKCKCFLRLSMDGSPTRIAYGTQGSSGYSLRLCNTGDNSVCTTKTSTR

[2] = molecular target: purified human Factor XIa (Homo sapiens (Human), UniProt P03951); assay: Factor XIa enzyme inhibition assay (chromogenic substrate S-2366)
purified human Factor XIa, sequence (P03951 388-625): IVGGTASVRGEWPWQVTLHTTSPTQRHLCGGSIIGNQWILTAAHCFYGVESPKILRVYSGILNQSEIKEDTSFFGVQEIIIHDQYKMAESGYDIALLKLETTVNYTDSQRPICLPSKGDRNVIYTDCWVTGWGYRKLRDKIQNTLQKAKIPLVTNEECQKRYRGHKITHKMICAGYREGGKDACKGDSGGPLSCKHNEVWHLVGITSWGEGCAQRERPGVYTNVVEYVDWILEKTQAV
purified human Factor XIa, sequence (P03951 19-387 partner): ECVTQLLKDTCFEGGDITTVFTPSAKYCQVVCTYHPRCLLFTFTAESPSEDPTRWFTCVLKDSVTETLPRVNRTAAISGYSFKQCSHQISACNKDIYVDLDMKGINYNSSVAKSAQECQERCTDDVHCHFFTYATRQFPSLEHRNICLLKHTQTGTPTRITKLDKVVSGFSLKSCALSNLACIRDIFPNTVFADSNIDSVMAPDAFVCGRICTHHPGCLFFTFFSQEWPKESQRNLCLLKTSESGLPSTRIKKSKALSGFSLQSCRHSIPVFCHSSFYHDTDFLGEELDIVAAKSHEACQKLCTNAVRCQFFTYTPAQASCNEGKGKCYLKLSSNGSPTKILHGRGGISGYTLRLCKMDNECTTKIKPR
Description: The effectiveness of compounds of the present invention as inhibitors of the coagulation Factors XIa, VIIa, IXa, Xa, XIIa, plasma kallikrein or thrombin, can be determined using a relevant purified serine protease, respectively, and an appropriate synthetic substrate. The rate of hydrolysis of the chromogenic or fluorogenic substrate by the relevant serine protease was measured both in the absence and presence of compounds of the present invention. […] A decrease in the rate of absorbance or fluorescence change in the presence of inhibitor is indicative of enzyme inhibition. […] The results of this assay are expressed as the inhibitory constant, Ki.
Values of Ki were determined by allowing the protease to react with the substrate in the presence of the inhibitor.

[3] = read-out: Factor XIa Ki, measured at 25° C.
[4] = measured at 25° C. (no asterisk)

Ki ([1]; measured at 37° C. (*)) [nM]	Ki [2, 3] [nM]	Ki [1, 4] [nM]	SMILES	further results
> 6000	2600		COC1CCN(c2cccc3c2CCN(C(=O)c2cnn(-c4cccc(Cl)c4)c2C(F)(F)F)C3C(=O)Nc2ccc(C(=O)O)cc2)CC1 (centres unmarked) [Example 150, 4-(2-(1-(3-chlorophenyl)-5-(trifluoromethyl)-1H-pyrazole-4-carbonyl)-5-(4-methoxypiperidin-1-yl)-1,2,3,4-tetrahydroisoquinoline-1-carboxamido)benzoic acid, TFA salt]	
			COC1CCN(c2cccc3c2CCN(C(=O)C2CCN(c4cccc(Cl)c4F)C2)C3C(=O)Nc2ccc(C(=O)O)cc2)CC1 (centres unmarked) [Example 307, 4-(2-(1-(3-Chloro-2-fluorophenyl)pyrrolidine-3-carbonyl) 5-(4-methoxypiperidin-1-yl)-1,2,3,4-tetrahydroisoquinoline-1-carboxamido)benzoic acid, TFA salt]	Ki ([1]; measured at 25° C. (no asterisk), TFA salt): 593 nM; Ki ([2]; read-out: Factor XIa Ki, measured at 25° C., TFA salt): 165 nM
> 13000	5.45		COC(=O)c1ccc(NC(=O)[C@H]2c3cccc(N4CCN(C5COC5)CC4)c3CCN2C(=O)[C@H]2CC(c3cccc(Cl)c3F)=NO2)cc1 [Example 233, Methyl 4-((R)-2-((R)-3-(3-chloro-2-fluorophenyl)-4,5-dihydroisoxazole-5-carbonyl)-5-(4-(oxetan-3-yl)piperazin-1-yl)-1,2,3,4-tetrahydroisoquinoline-1-carboxamido)benzoate, 2 TFA salt]	
635			COC1CCN(c2cccc3c2CCN(C(=O)[C@H]2CC(c4cccc(Cl)c4F)=NO2)[C@H]3C(=O)Nc2ccc(C(=O)O)cc2F)CC1 (single isomer, unassigned) [Example 244, TFA salt]	Ki [2]: 38.7 nM
	9.97	55.6	CN1CCC(NC(=O)c2cccc3c2CCN(C(=O)c2cn(-c4cccc(Cl)c4F)nn2)C3C(=O)Nc2ccc(C(=O)O)cc2)CC1 (centres unmarked) [Example 192, 4-(2-(1-(3-Chloro-2-fluorophenyl)-1H-1,2,3-triazole-4-carbonyl)-5-((1-methylpiperidin-4-yl)carbamoyl)-1,2,3,4-tetrahydroisoquinoline-1-carboxamido)benzoic acid, TFA salt]	
	< 5	9.88	O=C(O)c1ccc(NC(=O)C2c3cccc(-c4cncnc4)c3CCN2C(=O)c2cn(-c3cccc(Cl)c3F)nn2)cc1 (centres unmarked) [Example 12, 4-(2-(1-(3-Chloro-2-fluorophenyl)-1H-1,2,3-triazole-4-carbonyl)-5-(pyrimidin-5-yl)-1,2,3,4-tetrahydroisoquinoline-1-carboxamido)benzoic acid]	
> 6000	2690		COC1CCN(c2cccc3c2CCN(C(=O)c2cc(C)n(-c4ccc(Cl)cc4)c2C)C3C(=O)Nc2ccc(C(=O)O)cc2)CC1 (centres unmarked) [Example 147, 4-(2-(1-(4-chlorophenyl)-2,5-dimethyl-1H-pyrrole-3-carbonyl)-5-(4-methoxypiperidin-1-yl)-1,2,3,4-tetrahydroisoquinoline-1-carboxamido)benzoic acid, TFA salt]	
	6.44	13.1	O=C(O)c1ccc(NC(=O)[C@@H]2c3ccccc3CCN2C(=O)c2cn(-c3cccc(Cl)c3F)nn2)cc1 [Example 3, (S)-4-(2-(1-(3-Chloro-2-fluorophenyl)-1H-1,2,3-triazole-4-carbonyl)-1,2,3,4-tetrahydroisoquinoline-1-carboxamido)benzoic acid]	
		610	COC1CCN(c2cccc3c2CCN(C(=O)c2coc(-c4cccc(Cl)c4F)n2)C3C(=O)Nc2ccc(C(=O)O)cc2)CC1 (racemic) [Example 310, 4-(2-(2-(3-chloro-2-fluorophenyl)oxazole-4-carbonyl)-5-(4-methoxypiperidin-1-yl)-1,2,3,4-tetrahydroisoquinoline-1-carboxamido)benzoic acid, TFA salt]	Ki [2]: 82 nM
	15.2	3.12	CN1CCN(c2cccc3c2CCN(C(=O)C2CC(c4cccc(Cl)c4)=NO2)C3C(=O)Nc2ccc(C(=O)O)cc2)CC1 (centres unmarked) [Example 217, 4-(2-(3-(3-chlorophenyl)-4,5-dihydroisoxazole-5-carbonyl)-5-(4-methylpiperazin-1-yl)-1,2,3,4-tetrahydroisoquinoline-1-carboxamido)benzoic acid, 2 TFA salt]	
